From patent publication US20180185391A1, “Drug Treatment Of Psoriasis And Of Other Skin Disorders Associated With Inhibition Of Differentiation Of Epidermal Cells” (priority 2016, published 2018)
Entries after “also recorded” stand apart in the source; their conditions may differ.

Tests used:
psoriatic lesions = assay: Clinical observation of psoriatic plaques under topical treatment; assay type: in vivo, human
Method: The base cream used is made predominantly of heavy paraffin oil (10% w/w), vaseline (10% w/w), stearyl alcohol (8% w/w), polyoxylsteareth-40 (3% w/w) and water (68% w/w) but another suitably formulated base cream is also possible. […] The dosing and the application schedules followed for the lesion shown in FIG. 1A (psoriatic plaque on the dorsum of hand) are as follows: about 30 μl cream applied directly onto the lesion with the aid of a steel spatula every four hours for 24 hours. The cream-applied area is protected from accidental smearing and loss of the cream by covering with an aluminum applicator (FIG. 1 B). The dosing and the application schedules followed for the lesion shown in FIG. 1 D (psoriatic plaque at the scapular region) are as follows: about 30 μl cream applied directly onto the lesion every four hours for 24 hours. The cream-applied area is similarly covered against the smearing and loss of cream. Other treated psoriatic patients and lesions received from about 30 to 35 μl cream to each lesion at intervals of every 3 to 5 hours, as suitable and convenient. Lesions were similarly covered against the smearing and loss of cream. […] The corticosteroid used for treatment of the lesion shown in FIG. 4E was clobetasol 17-propionate in a final concentration of about 1.1 mM in base cream.

healthy skin = assay: Follow-up of healthy and non-lesional skin for adverse effects of topical cyclopamine; settings: for adverse effect on healthy / non-lesional skin: topical application under the described concentration and dosing conditions
From the text: Genetic heterogeneity and different ages of the psoriatic patients as well as the localizational heterogeneity of psoriatic lesions throughout body invite evaluation of the use of cyclopamine on different patients and lesions.
As there is evidence for the involvement of the hedgehog/smoothened signal transduction pathway in the maintenance of epidermal stem cells, untoward side effects of cyclopamine on skin are, a priori, possible and must be excluded.

human epithelial antigen = assay: Immunohistochemical staining for epithelial antigen with Ber-EP4 antibody; assay type: in vivo
From the text: All reaction conditions were as recommended by the manufacturer.
The monoclonal antibody Ber-EP4 is known to label the basal layer cells in normal epidermis. The outer root sheath of hair follicles, where the hair stem cells are thought to reside, are also known to be labeled with Ber-EP4.

cytokeratin 15 = assay: Immunohistochemical staining with C8/144B antibody (cytokeratin 15)
From the text: All antibodies and reagents for these immunohistochemical investigations were purchased from DAKO (Glostrup, Denmark); human Ki-67 antigen was detected by the monoclonal antibody M7187, human epithelial antigen was detected by the monoclonal antibody Ber-EP4, human CD4 antigen was detected by the monoclonal antibody M0716, human CD8 antigen was detected by the monoclonal antibody C8/144B. Besides the CD8 antigen, the monoclonal antibody C8/144B is known to recognize and bind to the cytokeratin 15 expressed by the hair stem cells (Kanitakis J. et al. (1999) Eur. J. Dermatol. 9:363-365). A DAKO “universal visualization kit” (LSAB2) employing biotinylated secondary antibody and peroxidase-conjugated streptavidin (pre-diluted to match the dilutions of DAKO-supplied primary antibodies) was used for the visualization reactions. All reaction conditions were as recommended by the manufacturer.

psoriatic lesional skin = assay: Histopathological examination (H&E) of treated psoriatic lesional skin sections; assay type: in vivo, human; settings: 24th hour of treatment
Method: FIG. 1A and FIG. 1C show a psoriatic plaque before and after exposure to cyclopamine and the rapid clinical regression. The cyclopamine cream was applied to the proximal half of this lesion present on the dorsum of right hand of a patient having plaque-type psoriasis. At intervals of 4 hours, approximately 30 μl cream was applied directly onto the lesion and the cream-applied region was covered against accidental smearing and loss of the cream (FIG. 1 B).
FIG. 2A to FIG. 2W show histopathological and immunohistochemical examination findings of the tissue sections from the non-lesional skin, cyclopamine-treated lesional skin and non-treated lesional skin. Compared to the non-lesional skin (FIG. 2A), the non-treated lesional skin (FIG. 2B) is seen to display the typical histopathological signs of a psoriatic skin lesion mentioned above in the “Background of Invention”. […] These histopathological signs of regression to normalcy, exemplified in the figures FIG. 2C and FIG. 2D (examples from other cyclopamine-treated lesions and patients are given later) include the following: […]

[1] = test system: palmoplantar pustulosis lesions; settings: 0.55 mM alone for 4 days; cited from earlier work
[2] = psoriatic lesional skin, 24th hour of treatment

| Structure (SMILES) | erythema of the psoriatic plaque (psoriatic lesions; 12th hour of treatment, scapular plaque, cyclopamine applied for a day then discontinued) | effectiveness on psoriatic lesions (regression and clearance) (psoriatic lesions; every lesion treated, unrelated patients 29 to 57 years, extremities to trunk) | state of the psoriatic plaque (psoriatic lesions; fourth day of follow-up, scapular plaque, 1 day of treatment, still visible) | lesions subjected to the single-day treatment that failed to clear completely (psoriatic lesions; human, in vivo) | day on which the lesion cleared (psoriatic lesions; scapular plaque, cyclopamine applied for a day then discontinued) | appearance of skin sites of cyclopamine application (healthy skin; follow-up over a period of more than 31 months) | adverse effect on healthy / non-lesional skin (healthy skin) | adverse effect on healthy / non-lesional skin (healthy skin; listed as Cyclopamine) | Ber-EP4 labeling of basal cells of non-lesional skin (human epithelial antigen; non-lesional skin after exposure to cyclopamine) | Ber-EP4 labeling of epidermal basal layer cells (human epithelial antigen; [2]) | cytokeratin 15 in basal cells of non-lesional epidermis (cytokeratin 15; non-lesional epidermis exposed to cyclopamine) | C8/144B (cytokeratin 15) labeling of epidermal basal layer cells (cytokeratin 15; [2]) | granular layer of epidermis (psoriatic lesional skin) | histopathological signs of the psoriatic lesion (psoriatic lesional skin) | regression or clearance of psoriatic lesions (psoriatic lesions; about […], alone, four days of treatment) | effect on palmoplantar pustulosis lesions [1] |
| --- | --- | --- | --- | --- | --- | --- | --- | --- | --- | --- | --- | --- | --- | --- | --- | --- |
| CC1=C2C[C@H]3[C@@H](CC=C4C[C@@H](O)CC[C@@]43C)[C@@H]2CC[C@]12O[C@@H]1C[C@H](C)CN[C@H]1[C@H]2C [cyclopamine] | decreased erythema | highly effective | marked regression | about 29% | > 8 days | healthy-looking normal skin and hair | no adverse effect has been detected | did not adversely affect the non-lesional skin; also recorded: no detectable adverse effect | remained Ber-EP4 positive | reverted to normalcy; also recorded: reversion to normalcy; also recorded: Epidermal basal layer cells are seen to display the epithelial antigen | continued to be positive for the cytokeratin 15 | normalized and became labeled by the C8/144B antibody; also recorded: reversion to normalcy | Re-appearance of the granular layer | dramatic improvement and regression to normalcy; also recorded: regression of the psoriatic plaque | – | – |
| CCC(=O)O[C@]1(C(=O)CCl)[C@@H](C)C[C@H]2[C@@H]3CCC4=CC(=O)C=C[C@]4(C)[C@@]3(F)[C@@H](O)C[C@@]21C [clobetasol 17-propionate, reference compound] | – | – | – | – | – | – | – | – | – | – | – | – | – | – | unable to cause a significant regression or clearance | not to produce a perceptible effect |
